In patent US9216964B2, “Hedgehog pathway modulators” (Novartis AG, priority 2008, dated 2015):
pIC50: −log10 of the molar value.

Tested on: hedgehog signaling pathway
Test: Gli-Luc Reporter Assay for Hh Pathway Inhibition (TMHh-12 cells, pTA-8×Gli-Luc reporter)
Assay type: cell-based, Mouse
Conditions: Mus musculus, TMHh12, enzymatic and cellular assays for the inhibition of hedgehog signaling pathways; read-out: IC50 Ranges
In short: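 Mouse TM3 cells stably carrying an 8×Gli-firefly luciferase reporter, in 2% FBS medium; pathway activated with recombinant mouse Shh (8 μg/mL) or Smo agonist, compounds added at varying concentrations for 48 h. Luminescence read; IC50 at 50% signal reduction. Toxicity checked in TM3 cells (CellTiter-Glo) or constitutive-luciferase TM3-Luc cells.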

`Cc1ccc(Nc2cccc3c2CCN(CCS(C)(=O)=O)C3)cc1-c1cc2ccccc2cn1` [Compound 315] and `Cc1ccc(Nc2cccc3c2CCN(C2CS(=O)(=O)C2)C3)cc1-c1cc2ccccc2cn1` [Compound 316] fall in the same range of pIC50: 9.00 to 12.00 for the first, 9.00 to 12.00 for the second.

Compared with `Cc1ccc(-c2nc(Nc3cccc4c3CCN(C3CS(=O)(=O)C3)C4)ccc2Cl)nc1` [Compound 317], `CCOc1ccc(-c2nc(Nc3cccc4c3CCN(C3CS(=O)(=O)C3)C4)ccc2C)nn1` [Compound 329] is lower in pIC50: 9.00 to 12.00 for the first, 7.00 to 8.00 for the second. The first is the more potent here.

`CCS(=O)(=O)N1CCc2c(cccc2Nc2ccc(C)c(-c3ccc(OC)nn3)n2)C1` [Compound 318] and `COc1ccc(-c2nc(Nc3cccc4c3CCN(S(=O)(=O)C(C)C)C4)ccc2C)nn1` [Compound 319] fall in the same range of pIC50: 8.00 to 9.00 for the first, 8.00 to 9.00 for the second.

`COc1ccc(-c2cc(Nc3cccc4c3CCN([C@@H]3CCS(=O)(=O)C3)C4)ccc2C)nn1` [Compound 321] and `COc1ccc(-c2cc(Nc3cccc4c3CCN([C@H]3CCS(=O)(=O)C3)C4)ccc2C)nn1` [Compound 322] fall in the same range of pIC50: 8.00 to 9.00 for the first, 8.00 to 9.00 for the second.

`Cc1ccc(Nc2cccc3c2CCN(C2CCS(=O)(=O)C2)C3)cc1-c1cc2ccccc2cn1` (stereo not shown) [Compound 324] and `Cc1ccc(Nc2nccc3c2CCN(C2CCS(=O)(=O)CC2)C3)cc1-c1cc2ccccc2cn1` [Compound 344] fall in the same range of pIC50: 9.00 to 12.00 for the first, 9.00 to 12.00 for the second.

`Cc1ccc(Nc2cccc3c2CCN(C2CS(=O)(=O)C2)C3)cc1-c1ncc(F)cc1F` [Compound 325] and `Cc1ccc(Nc2cccc3c2CCN(C2CCS(=O)(=O)C2)C3)cc1-c1ncc(F)cc1F` (stereo not shown) [Compound 326] fall in the same range of pIC50: 9.00 to 12.00 for the first, 9.00 to 12.00 for the second.

`CCOc1ccc(-c2cc(Nc3cccc4c3CCN(C3CCS(=O)(=O)CC3)C4)ccc2C)nn1` [Compound 327] and `CCOc1ccc(-c2cc(Nc3cccc4c3CCN([C@@H]3CCS(=O)(=O)C3)C4)ccc2C)nn1` [Compound 339] fall in the same range of pIC50: 8.00 to 9.00 for the first, 8.00 to 9.00 for the second.

First: CCOc1ccc(-c2nc(Nc3cccc4c3CCN(S(=O)(=O)C(C)C)C4)ccc2C)nn1 [Compound 328]
Second: CCOc1cnc(-c2nc(Nc3cccc4c3CCN(S(=O)(=O)C(C)C)C4)ccc2C)cn1 [Compound 336]
The pIC50 of the first is higher: 8.00 to 9.00 for the first, 7.00 to 8.00 for the second.

First: CCOc1cnc(-c2nc(Nc3cccc4c3CCN(S(=O)(=O)CC)C4)ccc2C)cn1 [Compound 330]
Second: CCOc1cnc(-c2nc(Nc3cccc4c3CCN(S(C)(=O)=O)C4)ccc2C)cn1 [Compound 333]
The pIC50 of the first is higher: 8.00 to 9.00 for the first, 7.00 to 8.00 for the second.

`Cc1ccc(Nc2nccc3c2CCN(S(C)(=O)=O)C3)cc1-c1cc2ccccc2cn1` [Compound 331] and `Cc1ccc(Nc2nccc3c2CCN(C2CS(=O)(=O)C2)C3)cc1-c1cc2ccccc2cn1` [Compound 332] fall in the same range of pIC50: 7.00 to 8.00 for the first, 7.00 to 8.00 for the second.

First: CCOc1ccc(-c2nc(Nc3cccc4c3CCN(C3CCS(=O)(=O)C3)C4)ccc2C)nn1 (stereo not shown) [Compound 334]
Second: CCOc1ccc(-c2cc(Nc3cccc4c3CCN([C@H]3CCS(=O)(=O)C3)C4)ccc2C)nn1 [Compound 340]
The pIC50 of the first is lower: 7.00 to 8.00 for the first, 8.00 to 9.00 for the second. The second is the more potent here.

`CCOc1cnc(-c2cc(Nc3cccc4c3CCN(C3CCS(=O)(=O)CC3)C4)ccc2C)cn1` [Compound 335] and `Cc1ccc(Nc2ncnc3c2CCN(C2CCS(=O)(=O)CC2)C3)cc1-c1cc2ccccc2cn1` [Compound 342] fall in the same range of pIC50: 8.00 to 9.00 for the first, 8.00 to 9.00 for the second.

`Clc1ccc(Nc2ccc3c(c2)CN(C2CCOCC2)CC3)cc1-c1nc(-c2ccccc2)c[nH]1` [Compound 346] and `CCN1CCC(N2CCc3ccc(Nc4ccc(Cl)c(-c5nc(-c6ccccc6)c[nH]5)c4)cc3C2)CC1` [Compound 347] fall in the same range of pIC50: 7.00 to 8.00 for the first, 7.00 to 8.00 for the second.

Same assay, conditions: enzymatic and cellular assays for the inhibition of hedgehog signaling pathways; read-out: IC50 Ranges

First: CCOc1ccc(-c2cc(Nc3cccc4c3CCN(C3CCS(=O)(=O)C3)C4)ccc2C)nn1 (stereo not shown) [Compound 323]
Second: Cc1ccc(Nc2cccc3c2CCN([C@@H]2CCS(=O)(=O)C2)C3)cc1-c1ncccc1F [Compound 341]
The pIC50 of the first is lower: 8.00 to 9.00 for the first, 9.00 to 12.00 for the second. The second is the more potent here.

`Cc1ccc(Nc2cccc3c2CCN(C2CCS(=O)(=O)C2)C3)cc1-c1ncc(F)cc1F` (stereo not shown) [Compound 338] and `Cc1ccc(Nc2cccc3c2CCN([C@H]2CCS(=O)(=O)C2)C3)cc1-c1ncccc1F` [Compound 343] fall in the same range of pIC50: 9.00 to 12.00 for the first, 9.00 to 12.00 for the second.

For `Cc1ccc(Nc2cccc3c2CCN([C@H]2CCS(=O)(=O)C2)C3)cc1-c1ncccc1F` [Compound 345], the pIC50 was 9.00 to 12.00.
